Test results reported in the supplement of paper PMC4932681.
Counter-ions that a name gives are not always drawn.

How the values were obtained:
ZR-75-1 Tam2 [1] = assay: drug sensitivity score (DSS) (DSS (dimensionless)); higher = more sensitive; extreme values may be limits of the assay; details: 4-OH-tamoxifen in medium 1 µM; 72 h
Procedure, shortened: (§1)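 Breast cancer cell lines and their resistant derivatives were seeded into 384-well plates holding FO2Baq library drugs at five concentrations spanning a 10 000-fold range. Resistant lines were in medium with 1 μM of the selecting drug. Cells were incubated 72 h at 37 °C, and CellTiter-Glo viability was read on a PHERAstar and normalised to vehicle-only and positive controls. Drug sensitivity score, relative IC50 (curve midpoint) and top-dose inhibition came from logistic dose–response fits (Breeze pipeline).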

BT-474 [2] = assay: as above; details: 72 h
Procedure, shortened: as §1

MCF-7 Tam1 [3] = assay: as above; details: 4-OH-tamoxifen in medium 1 µM; 72 h
Procedure, shortened: as §1

ZR-75-1 [4] = assay: as above; details: 72 h
Procedure, shortened: as §1

T-47D Tam1 [5] = assay: as above; details: 4-OH-tamoxifen in medium 1 µM; 72 h
Procedure, shortened: as §1

ZR-75-1 Tam1 [6] = assay: as above; details: 4-OH-tamoxifen in medium 1 µM; 72 h
Procedure, shortened: as §1

BT-474 Tam2 [7] = assay: as above; details: 4-OH-tamoxifen in medium 1 µM; 72 h
Procedure, shortened: as §1

T-47D Tam2 [8] = assay: as above; details: 4-OH-tamoxifen in medium 1 µM; 72 h
Procedure, shortened: as §1

BT-474 Tam1 [9] = assay: as above; details: 4-OH-tamoxifen in medium 1 µM; 72 h
Procedure, shortened: as §1

MCF-7 [10] = assay: as above; details: 72 h
Procedure, shortened: as §1

T-47D [11] = assay: as above; details: 72 h
Procedure, shortened: as §1

ZR-75-1 Tam2 [12] = assay: relative IC50 (midpoint of fitted logistic curve, plateau may be below 50% inhibition; CellTiter-Glo viability); higher = less potent; details: 4-OH-tamoxifen in medium 1 µM; 72 h
Procedure, shortened: as §1

BT-474 [13] = assay: as above; details: 72 h
Procedure, shortened: as §1

MCF-7 Tam1 [14] = assay: as above; details: 4-OH-tamoxifen in medium 1 µM; 72 h
Procedure, shortened: as §1

ZR-75-1 [15] = assay: as above; details: 72 h
Procedure, shortened: as §1

T-47D Tam1 [16] = assay: as above; details: 4-OH-tamoxifen in medium 1 µM; 72 h
Procedure, shortened: as §1

ZR-75-1 Tam1 [17] = assay: as above; details: 4-OH-tamoxifen in medium 1 µM; 72 h
Procedure, shortened: as §1

T-47D Tam2 [18] = assay: as above; details: 4-OH-tamoxifen in medium 1 µM; 72 h
Procedure, shortened: as §1

BT-474 Tam1 [19] = assay: as above; details: 4-OH-tamoxifen in medium 1 µM; 72 h
Procedure, shortened: as §1

MCF-7 [20] = assay: as above; details: 72 h
Procedure, shortened: as §1

T-47D [21] = assay: as above; details: 72 h
Procedure, shortened: as §1

BT-474 Tam2 [22] = assay: as above; details: 4-OH-tamoxifen in medium 1 µM; 72 h
Procedure, shortened: as §1

| SMILES | relative IC50 (BT-474 [13]; 4-OH-tamoxifen in medium 0 µM) | relative IC50 (BT-474 [13]; 4-OH-tamoxifen in medium 1 µM) | relative IC50 (MCF-7 Tam1 [14]) | relative IC50 (T-47D Tam1 [16]) | relative IC50 (T-47D Tam2 [18]) | relative IC50 (BT-474 Tam1 [19]) | relative IC50 (MCF-7 [20]; 4-OH-tamoxifen in medium 0 µM) | relative IC50 (T-47D [21]; 4-OH-tamoxifen in medium 0 µM) | relative IC50 (T-47D [21]; 4-OH-tamoxifen in medium 1 µM) | relative IC50 (BT-474 Tam2 [22]) | relative IC50 (MCF-7 [20]; 4-OH-tamoxifen in medium 1 µM) | drug sensitivity score (ZR-75-1 Tam2 [1]) | drug sensitivity score (BT-474 [2]; 4-OH-tamoxifen in medium 0 µM) | drug sensitivity score (BT-474 [2]; 4-OH-tamoxifen in medium 1 µM) | drug sensitivity score (MCF-7 Tam1 [3]) | drug sensitivity score (ZR-75-1 [4]; 4-OH-tamoxifen in medium 0 µM) | drug sensitivity score (ZR-75-1 [4]; 4-OH-tamoxifen in medium 1 µM) | drug sensitivity score (T-47D Tam1 [5]) | drug sensitivity score (ZR-75-1 Tam1 [6]) | drug sensitivity score (BT-474 Tam2 [7]) | drug sensitivity score (T-47D Tam2 [8]) | drug sensitivity score (BT-474 Tam1 [9]) | drug sensitivity score (MCF-7 [10]; 4-OH-tamoxifen in medium 0 µM) | drug sensitivity score (MCF-7 [10]; 4-OH-tamoxifen in medium 1 µM) | drug sensitivity score (T-47D [11]; 4-OH-tamoxifen in medium 0 µM) | drug sensitivity score (T-47D [11]; 4-OH-tamoxifen in medium 1 µM) | relative IC50 (ZR-75-1 Tam2 [12]) | relative IC50 (ZR-75-1 [15]; 4-OH-tamoxifen in medium 0 µM) | relative IC50 (ZR-75-1 [15]; 4-OH-tamoxifen in medium 1 µM) | relative IC50 (ZR-75-1 Tam1 [17]) |
| --- | --- | --- | --- | --- | --- | --- | --- | --- | --- | --- | --- | --- | --- | --- | --- | --- | --- | --- | --- | --- | --- | --- | --- | --- | --- | --- | --- | --- | --- | --- |
| CN1CCC(COc2cnc(-c3cccc(Cn4nc(-c5cccc(C#N)c5)ccc4=O)c3)nc2)CC1 | > 1000 nM | > 1000 nM | > 1000 nM | 314 nM | > 1000 nM | > 1000 nM | > 1000 nM | > 1000 nM | > 1000 nM |  |  | 0 | 0 | 0 | 0 | 0 | 0 | 3.13 | 0 | 1.22 | 0 | 0 | 0 | 0.0353 | 0 | 0 | > 1000 nM | > 1000 nM | > 1000 nM | > 1000 nM |
| COc1cc(Nc2ncc(F)c(Nc3ccc4c(n3)N(COP(=O)(O)O)C(=O)C(C)(C)O4)n2)cc(OC)c1OC | > 10000 nM | 2920 nM | 6950 nM | 1430 nM | 2270 nM | 3560 nM | 1790 nM | 2340 nM | 2890 nM | > 10000 nM | 2360 nM | 1.42 | 0 | 2.25 | 1.04 | 0 | 0.307 | 4.15 | 1.22 | 0 | 3.3 | 2.63 | 2.7 | 4.99 | 2.65 | 1.95 | 3160 nM | > 10000 nM |  |  |
| CCN(CC)CCOc1ccc(C(=C(Cl)c2ccccc2)c2ccccc2)cc1 [Clomifene citrate] | 3340 nM | 2380 nM | 3200 nM | 1830 nM | 3170 nM | 2800 nM |  |  |  | 1790 nM | 2360 nM | 2.03 | 4.53 | 5.95 | 3.09 | 0.493 | 1.42 | 3.26 | 1.02 | 8.36 | 2.56 | 5.39 | 0 | 6.09 | 0.434 | 1.21 | 3330 nM |  | 3820 nM |  |

More lines, main results first:

| relative IC50 (BT-474 [13]; 4-OH-tamoxifen in medium 0 µM) | relative IC50 (BT-474 [13]; 4-OH-tamoxifen in medium 1 µM) | relative IC50 (MCF-7 Tam1 [14]) | relative IC50 (T-47D Tam1 [16]) | relative IC50 (T-47D Tam2 [18]) | relative IC50 (BT-474 Tam1 [19]) | relative IC50 (MCF-7 [20]; 4-OH-tamoxifen in medium 0 µM) | relative IC50 (T-47D [21]; 4-OH-tamoxifen in medium 0 µM) | relative IC50 (T-47D [21]; 4-OH-tamoxifen in medium 1 µM) | relative IC50 (BT-474 Tam2 [22]) | relative IC50 (MCF-7 [20]; 4-OH-tamoxifen in medium 1 µM) | SMILES | drug sensitivity score (ZR-75-1 Tam2 [1]) | drug sensitivity score (BT-474 [2]; 4-OH-tamoxifen in medium 0 µM) | drug sensitivity score (BT-474 [2]; 4-OH-tamoxifen in medium 1 µM) | drug sensitivity score (MCF-7 Tam1 [3]) | drug sensitivity score (ZR-75-1 [4]; 4-OH-tamoxifen in medium 0 µM) | drug sensitivity score (ZR-75-1 [4]; 4-OH-tamoxifen in medium 1 µM) | drug sensitivity score (T-47D Tam1 [5]) | drug sensitivity score (ZR-75-1 Tam1 [6]) | drug sensitivity score (BT-474 Tam2 [7]) | drug sensitivity score (T-47D Tam2 [8]) | drug sensitivity score (BT-474 Tam1 [9]) | drug sensitivity score (MCF-7 [10]; 4-OH-tamoxifen in medium 0 µM) | drug sensitivity score (MCF-7 [10]; 4-OH-tamoxifen in medium 1 µM) | drug sensitivity score (T-47D [11]; 4-OH-tamoxifen in medium 0 µM) | drug sensitivity score (T-47D [11]; 4-OH-tamoxifen in medium 1 µM) | relative IC50 (ZR-75-1 Tam2 [12]) | relative IC50 (ZR-75-1 [15]; 4-OH-tamoxifen in medium 0 µM) | relative IC50 (ZR-75-1 [15]; 4-OH-tamoxifen in medium 1 µM) | relative IC50 (ZR-75-1 Tam1 [17]) |
| --- | --- | --- | --- | --- | --- | --- | --- | --- | --- | --- | --- | --- | --- | --- | --- | --- | --- | --- | --- | --- | --- | --- | --- | --- | --- | --- | --- | --- | --- | --- |
| > 10000 nM | 1040 nM | 3260 nM | 1560 nM | 1980 nM | 329 nM | 1410 nM |  |  | 749 nM | 2700 nM | Cc1cc(Nc2cc(CN3CCOCC3)c3nc(C)c(Cc4ccc(Cl)cc4F)n3n2)n[nH]1 | 0.848 | 0 | 7.73 | 2.42 | 0 | 0 | 3.55 | 0 | 12.8 | 3.58 | 16.2 | 6.61 | 4.32 | 1.41 | 1.86 |  | > 10000 nM | > 10000 nM | > 10000 nM |
| 347 nM | 891 nM | > 10000 nM | 1170 nM | 920 nM | 1350 nM | 615 nM | > 10000 nM | > 10000 nM | 992 nM | 1490 nM | COc1ccc(S(=O)(=O)Nc2cccnc2Nc2ccc(O)cc2)cc1 [ABT-751] | 1.41 | 6.81 | 9.13 | 0 | 5.44 | 0.184 | 6.4 | 0 | 6.39 | 4.48 | 6.57 | 6.87 | 4.14 | 0 | 0 |  | 412 nM |  | > 10000 nM |
| > 10000 nM |  | > 10000 nM | > 10000 nM | > 10000 nM | > 10000 nM | > 10000 nM | > 10000 nM | > 10000 nM |  | > 10000 nM | Oc1ncnc2[nH]ncc12 [Allopurinol] | 0 | 0 | 2.18 | 0 | 0 | 0 | 0 | 0 | 0 | 0 | 0 | 0 | 0 | 0 | 0 | > 10000 nM | > 10000 nM | > 10000 nM |  |
| 2950 nM | 1130 nM | 4020 nM | 1320 nM | 1780 nM | 1580 nM | 3140 nM | 2480 nM | 3380 nM | 1610 nM | 4010 nM | COc1cc(Nc2c(C#N)cnc3cc(OCCCN4CCN(C)CC4)c(OC)cc23)c(Cl)cc1Cl [Bosutinib] | 3.08 | 4.93 | 10.5 | 2.05 | 0.173 | 0.731 | 7.41 | 0.537 | 8.71 | 6.72 | 8.93 | 4.57 | 3.41 | 2.64 | 3.44 | 3190 nM |  |  |  |
| > 990000 nM | > 990000 nM | > 990000 nM | > 990000 nM | > 990000 nM |  | > 990000 nM | > 990000 nM | > 990000 nM |  | > 990000 nM | CCN(CC)CCCC(C)Nc1ccnc2cc(Cl)ccc12 (stereo not drawn) [Chloroquine] | 0 | 0 | 0 | 0 | 0 | 0 | 0 | 0 | 0.999 | 0 | 0.266 | 0 | 0 | 0 | 0 | > 990000 nM | > 990000 nM | > 990000 nM | > 990000 nM |
